For 26 molecules, IC50 and EC50 results are on record in US20100075965A1, “PI3 KINASE INHIBITORS AND METHODS OF THEIR USE” (Novartis AG, priority 2006, published 2010).

Where two headings read alike, the source gives them in different places.

One experiment has as its target PI3 K Alpha (Homo sapiens, UniProt P42336). Nature of the experiment: PI3 kinase phosphorylation assays (homogenous solution phase, one step solid phase, ATP depletion/KinaseGlo). Type of experiment: biochemical. The protocol: Compounds to be tested are dissolved in DMSO and directly distributed into 384-well flashplates at 1.25 μL per well. To start the reaction, 20 μL of 6 nM PI3 kinase are added into each well followed by 20 μL of 400 nM ATP containing a trace of radiolabeled ATP and 900 nM 1-alpha-phosphatidylinositol (PI). The plates are briefly centrifuged to remove any air gap. The reaction is performed for 15 minutes and then stopped by the addition of 20 μL of 100 mM EDTA. The stopped reaction is incubated overnight at RT to allow the lipid substrate to bind by hydrophobic interaction to the surface of the flashplate. The liquid in the wells is then washed away, and the labeled substrate is detected with scintillation counting.
This method is similar to Assay 1 except that the lipid substrate (1-alpha-phosphatidylinositol (PI)) is first dissolved in a coating buffer and incubated on flashplate at room temperature overnight to allow the lipid substrate to bind by hydrophobic interaction to the surface of the flashplate. Unbound substrate is then washed away. On the day of assay, 20 μL of 6 nM PI3 kinase are added into each well followed by 20 μL of 400 nM ATP containing trace of radiolabeled ATP. Compounds are added together with enzyme and ATP to the lipid-coated plates. The plates are briefly centrifuged to remove any air gap. The reaction is performed for two to three hours. The reaction is stopped by addition of 20 μL of 100 mM EDTA or by immediate plate washing. Phosphorylated lipid substrate is detected by scintillation counting.
Compounds to be tested are dissolved in DMSO and directly distributed into a black 384-well plate at 1.25 μL per well. To start the reaction, 25 μL of 10 nM PI3 kinase and 5 μg/mL 1-alpha-phosphatidylinositol (PI) are added into each well followed by 25 μL of 2 μM ATP. The reaction is performed until approx 50% of the ATP is depleted, and then stopped by the addition of 25 μL of KinaseGlo solution. The stopped reaction is incubated for 5 minutes and the remaining ATP is then detected via luminescence.

A further experiment concerns A2780 cells. Nature of the experiment: Viability assay in A2780 (Cell Titer Glo). Type of experiment: cell-based, human. Conditions: A2780 cells, read-out: A2780 Cell prolif. EC50. The protocol: Cell viability was assessed with Cell Titer Glo assay, Promega. Cells were seeded in TC treated 96-well plates at a density of 1,000 (A2780 cells) per well in DMEM with 10% FBS, 1% Sodium Pyruvate, and 1% Penicillin Streptomycin for a minimum of 2 hrs prior to addition of compound. Test compounds were serially diluted (3 fold) in DMSO to 500× the final concentration. For each concentration of test compound, 2 μL (500×) aliquots of compound or 100% DMSO (control) were diluted in 500 μL of culture medium to 2× final concentration then diluted 1× on the cells. Cells were incubated for 72 hrs at 37° C., 5% CO2. After which Cell Titer Glo is added to determine viable cells, the assay was performed according to the manufacturer's instruction (Promega Corporation, Madison, Wis. USA). Each experimental condition was performed in duplicate. Raw data was imported in Abase and EC50s calculated with XL-fit data analysis software and are shown in Tables 1 and 2 in the column labeled “A2780 Cell prolif. EC50”.
For orientation: Cellular ATP, detected with luciferase, serves as a proxy for viable cell number.

PI3 K Alpha, sequence (P42336 whole entry): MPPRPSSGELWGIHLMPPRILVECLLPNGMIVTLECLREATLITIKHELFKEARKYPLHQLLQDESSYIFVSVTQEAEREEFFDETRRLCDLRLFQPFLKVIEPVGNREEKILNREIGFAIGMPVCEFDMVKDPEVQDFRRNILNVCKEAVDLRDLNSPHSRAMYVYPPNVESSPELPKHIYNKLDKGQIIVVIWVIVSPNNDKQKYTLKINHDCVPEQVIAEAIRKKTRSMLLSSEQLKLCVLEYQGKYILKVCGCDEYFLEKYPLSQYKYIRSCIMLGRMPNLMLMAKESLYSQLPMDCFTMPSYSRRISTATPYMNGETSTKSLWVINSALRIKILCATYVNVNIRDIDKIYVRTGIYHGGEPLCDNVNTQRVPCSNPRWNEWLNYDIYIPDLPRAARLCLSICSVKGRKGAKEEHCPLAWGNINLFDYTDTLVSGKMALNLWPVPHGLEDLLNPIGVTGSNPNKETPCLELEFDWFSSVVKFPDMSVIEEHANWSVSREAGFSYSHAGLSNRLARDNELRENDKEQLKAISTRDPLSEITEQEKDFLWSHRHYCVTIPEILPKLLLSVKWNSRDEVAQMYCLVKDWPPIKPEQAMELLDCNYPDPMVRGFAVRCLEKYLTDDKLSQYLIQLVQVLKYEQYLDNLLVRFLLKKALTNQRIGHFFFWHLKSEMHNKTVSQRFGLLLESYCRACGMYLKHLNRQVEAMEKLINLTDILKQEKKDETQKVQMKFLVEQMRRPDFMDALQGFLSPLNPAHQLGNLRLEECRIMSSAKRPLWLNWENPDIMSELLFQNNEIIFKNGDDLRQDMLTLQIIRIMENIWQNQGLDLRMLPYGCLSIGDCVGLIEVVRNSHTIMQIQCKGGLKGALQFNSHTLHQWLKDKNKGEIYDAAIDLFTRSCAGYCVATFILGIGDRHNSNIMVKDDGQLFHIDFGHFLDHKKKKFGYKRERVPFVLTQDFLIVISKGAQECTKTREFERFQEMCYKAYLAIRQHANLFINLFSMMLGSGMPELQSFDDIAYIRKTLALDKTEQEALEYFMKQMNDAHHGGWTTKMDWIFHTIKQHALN
PI3 K Alpha, sequence (P27986 whole entry partner): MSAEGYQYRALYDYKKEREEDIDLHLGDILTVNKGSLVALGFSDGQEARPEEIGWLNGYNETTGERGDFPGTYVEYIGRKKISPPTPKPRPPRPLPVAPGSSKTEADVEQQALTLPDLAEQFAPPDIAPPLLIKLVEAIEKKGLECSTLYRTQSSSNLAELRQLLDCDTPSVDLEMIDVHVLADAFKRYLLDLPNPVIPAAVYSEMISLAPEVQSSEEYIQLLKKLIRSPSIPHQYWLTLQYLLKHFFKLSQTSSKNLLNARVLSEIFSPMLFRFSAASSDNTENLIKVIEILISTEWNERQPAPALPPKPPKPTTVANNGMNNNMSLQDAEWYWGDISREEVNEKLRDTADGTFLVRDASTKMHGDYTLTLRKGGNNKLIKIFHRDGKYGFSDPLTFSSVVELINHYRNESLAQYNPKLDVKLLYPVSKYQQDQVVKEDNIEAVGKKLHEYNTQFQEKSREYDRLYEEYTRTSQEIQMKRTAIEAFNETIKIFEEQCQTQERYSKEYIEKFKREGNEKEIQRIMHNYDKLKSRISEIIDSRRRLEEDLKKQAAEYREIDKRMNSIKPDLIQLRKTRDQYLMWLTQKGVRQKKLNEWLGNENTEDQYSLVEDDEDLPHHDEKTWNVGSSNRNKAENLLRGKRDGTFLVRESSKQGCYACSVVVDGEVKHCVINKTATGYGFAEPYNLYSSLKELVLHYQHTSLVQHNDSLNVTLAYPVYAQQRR

The term IC50 denotes the concentration at which inhibition is half-maximal. What is called EC50 is the midpoint of the concentration-response curve. As for `C=Cc1c(NC(C)=O)nc2ccc(-c3cnc(N)c(C(F)(F)F)c3)cn12` [Example 168, N-(6-(6-amino-5-(trifluoromethyl)pyridin-3-yl)-3-vinylimidazo[1,2-a]pyridin-2-yl)acetamide], the IC50 on PI3 K Alpha (read-out: PI3K Alpha IC50) was under 1000 nM. Further, in the experiment with A2780 cells (Homo sapiens), the EC50 is under 25 µM.

Turning to `Nc1ncc(-c2ccc3nc(NC(=O)c4ccc(F)nc4)cn3c2)cc1C(F)(F)F` [Example 143, N-(6-(6-amino-5-(trifluoromethyl)pyridin-3-yl)imidazo[1,2-a]pyridin-2-yl)-6-fluoronicotinamide], the IC50 on PI3 K Alpha (read-out: PI3K Alpha IC50) is under 1000 nM. In addition, in the experiment on A2780 cells (Homo sapiens), the EC50 was under 25 µM.

In the case of `Nc1ncc(-c2ccc3nc(NC(=O)[C@@H]4CCCCN4Cc4ccccc4)cn3c2)cc1C(F)(F)F` [Example 233], at PI3 K Alpha (read-out: PI3K Alpha IC50), the IC50 is under 1000 nM. Further, the EC50 in the experiment on A2780 cells (Homo sapiens) was under 10 µM.

With `CC(=O)Nc1cn2nc(-c3cnc(N)c(C(=O)NCCNS(C)(=O)=O)c3)ccc2n1` [Example 141, 5-(2-acetamido-imidazo[1,2-b]pyridazin-6-yl)-2-amino-N-(2-(methylsulfon amido)ethyl) nicotinamide], at PI3 K Alpha (read-out: PI3K Alpha IC50), the IC50 was under 1000 nM. In the experiment on A2780 cells (Homo sapiens), the EC50 was under 25 µM.

Regarding `CC(=O)Nc1cn2cc(-c3cnc(N)c(OC4CNC4)n3)ccc2n1` [Example 149, N-(6-(5-amino-6-(azetidin-3-yloxy)pyrazin-2-yl)imidazo[1,2-a]pyridin-2-yl)acetamide], the IC50 on PI3 K Alpha (read-out: PI3K Alpha IC50) was under 1000 nM. In the experiment on A2780 cells (Homo sapiens), the EC50 was under 25 µM.

Consider `COCCOc1nc(-c2ccc3nc(NC(C)=O)cn3n2)cnc1N` [Example 287, N-(6-(5-amino-6-(2-methoxyethoxy)pyrazin-2-yl)imidazo[1,2-b]pyridazin-2-yl)acetamide], for which the EC50 in the experiment on A2780 cells (Homo sapiens) was under 10 µM.

Consider `CC(=O)Nc1cn2cc(-c3cnc(N)c(OCC4CCN(C)CC4)n3)ccc2n1` [Example 209, N-(6-(5-amino-6-((1-methylpiperidin-4-yl)methoxy)pyrazin-2-yl)imidazo[1,2-a]pyridin-2-yl)acetamide], for which the IC50 on PI3 K Alpha (read-out: PI3K Alpha IC50) was under 1000 nM. For the same molecule, the EC50 in the experiment with A2780 cells (Homo sapiens) was under 10 µM.

`COC[C@@H]1CCCN1C(=O)Nc1cn2cc(-c3cnc(N)c(C(F)(F)F)c3)ccc2n1` [Example 165, (S)-N-(6-(6-amino-5-(trifluoromethyl)pyridin-3-yl)imidazo[1,2-a]pyridin-2-yl)-2-(methoxymethyl) pyrrolidine-1-carboxamide]: the IC50 at PI3 K Alpha (read-out: PI3K Alpha IC50) is under 1000 nM. In addition, in the experiment on A2780 cells (Homo sapiens), the EC50 was under 25 µM.

In the case of `CC(=O)Nc1cccc(-c2c(NC(C)=O)nc3ccc(-c4cnc(N)c(C(F)(F)F)c4)cn23)c1` [Example 9, N-[3-(3-Acetylamino-phenyl)-6-(6-amino-5-trifluoromethyl-pyridin-3-yl)-imidazo[1,2-a]pyridin-2-yl]-acetamide], the IC50 on PI3 K Alpha (read-out: PI3K Alpha IC50) was under 1000 nM. For the same molecule, the EC50 in the experiment with A2780 cells (Homo sapiens) is under 25 µM.

For the molecule `CC(=O)Nc1nc2ccc(-c3cnc(N)c(C(F)(F)F)c3)cn2c1C(N)=O` [Example 243, 2-acetamido-6-(6-amino-5-(trifluoromethyl)pyridin-3-yl)imidazo[1,2-a]pyridine-3-carboxamide], on PI3 K Alpha (read-out: PI3K Alpha IC50), the IC50 was under 1000 nM. In addition, in the experiment on A2780 cells (Homo sapiens), the EC50 was under 10 µM.

As to `CC(=O)N1CCCC[C@H]1C(=O)Nc1cn2cc(-c3cnc(N)c(C(F)(F)F)c3)ccc2n1` [Example 282, (S)-1-acetyl-N-(6-(6-amino-5-(trifluoromethyl)pyridin-3-yl)imidazo[1,2-a]pyridin-2-yl)piperidine-2-carboxamide], in the experiment with A2780 cells (Homo sapiens), the EC50 is under 25 µM.

Take `CC(=O)N1CCC[C@H]1C(=O)Nc1cn2cc(-c3cnc(N)c(Cl)c3)ccc2n1` [Example 182, (S)-1-acetyl-N-(6-(6-amino-5-chloropyridin-3-yl)imidazo[1,2-a]pyridin-2-yl)pyrrolidine-2-carboxamide]: the IC50 at PI3 K Alpha (read-out: PI3K Alpha IC50) was under 1000 nM. Further, in the experiment on A2780 cells (Homo sapiens), the EC50 was under 25 µM.

On to `CC(=O)Nc1cn2cc(-c3cnc(N)c(C(F)(F)F)c3)c(F)cc2n1` [Example 171, N-(6-(6-amino-5-(trifluoromethyl)pyridin-3-yl)-7-fluoroimidazo [1,2-a]pyridin-2-yl)acetamide], for which, on PI3 K Alpha (read-out: PI3K Alpha IC50), the IC50 is under 1000 nM. The EC50 with A2780 cells (Homo sapiens) is under 25 µM.

Turning to `Nc1ncc(-c2ccc3nc(NC(=O)[C@@H]4CCCN4)cn3c2)cc1C(F)(F)F` [Example 38, (S)-N-(6-(6-amino-5-(trifluoromethyl)pyridin-3-yl)imidazo[1,2-a]pyridin-2-yl)pyrrolidine-2-carboxamide], at PI3 K Alpha (read-out: PI3K Alpha IC50), the IC50 was under 25000 nM. Also, in the experiment with A2780 cells (Homo sapiens), the EC50 was under 10 µM.

On to `CC(=O)Nc1nc2ccc(-c3cnc(N)c(C(F)(F)F)c3)cn2c1CCc1ccccc1` [Example 254, N-(6-(6-amino-5-(trifluoromethyl)pyridin-3-yl)-3-phenethyl-imidazo[1,2-a]pyridin-2-yl)acetamide], for which, on PI3 K Alpha (read-out: PI3K Alpha IC50), the IC50 was under 1000 nM. Besides, the EC50 with A2780 cells (Homo sapiens) was under 10 µM.

As for `CCN1CCC(Oc2nc(-c3ccc4nc(NC(C)=O)cn4c3)cnc2N)CC1` [Example 286, N-(6-(5-amino-6-(1-ethylpiperidin-4-yloxy)pyrazin-2-yl)imidazo[1,2-a]pyridin-2-yl)acetamide], the EC50 with A2780 cells (Homo sapiens) was under 10 µM.

As for `CC(C)C(=O)Nc1cn2cc(-c3cnc(N)c(C(F)(F)F)c3)ccc2n1` [Example 278, N-(6-(6-amino-5-(trifluoromethyl)pyridin-3-yl)imidazo[1,2-a]pyridin-2-yl)isobutyramide], the concentration for a half-maximal effect (EC50) in the experiment on A2780 cells (Homo sapiens) was under 25 µM.

As to `CNC(=O)[C@@H]1CCCN1C(=O)Nc1cn2cc(-c3cnc(N)c(C(F)(F)F)c3)ccc2n1` [Example 281, (S)-N1-(6-(6-amino-5-(trifluoromethyl)pyridin-3-yl)imidazo[1,2-a]pyridin-2-yl)-N2-methylpyrrolidine-1,2-dicarboxamide], the concentration giving a half-maximal response (EC50) with A2780 cells (Homo sapiens) was under 25 µM.

`CC(=O)Nc1cn2cc(-c3cnc(N)c(OC4CCNCC4)n3)ccc2n1` [Example 280, N-(6-(5-amino-6-(piperidin-4-yloxy)pyrazin-2-yl)imidazo[1,2-a]pyridin-2-yl)acetamide]: the EC50 in the experiment with A2780 cells (Homo sapiens) is under 25 µM.

As for `NC(=O)[C@@H]1CCCN1C(=O)Nc1cn2cc(-c3cnc(N)c(C(F)(F)F)c3)ccc2n1` [Example 285, (S)-N1-(6-(6-amino-5-(trifluoromethyl)pyridin-3-yl)imidazo[1,2-a]pyridin-2-yl)pyrrolidine-1,2-dicarboxamide], the EC50 in the experiment on A2780 cells (Homo sapiens) is under 10 µM.

On to `CC(=O)Nc1cn2nc(-c3cnc(N)c(OCC(F)(F)F)n3)ccc2n1` [Example 284, N-(6-(5-amino-6-(2,2,2-trifluoroethoxy)pyrazin-2-yl)imidazo[1,2-b]pyridazin-2-yl)acetamide], for which the EC50 in the experiment with A2780 cells (Homo sapiens) was under 10 µM.

Turning to `CC(C)(C)OC(=O)N1CCC1C(=O)Nc1cn2nc(-c3cnc(N)c(C(F)(F)F)c3)ccc2n1` (stereo not drawn) [Example 279, tert-butyl 2-(6-(6-amino-5-(trifluoromethyl)pyridin-3-yl)imidazo[1,2-b]pyridazin-2-ylcarbamoyl) azetidine-1-carboxylate], the EC50 with A2780 cells was under 25 µM.

Consider `CC(=O)Nc1nc2ccc(-c3ccc(NC4CCOCC4)nc3)cc2s1` [Example 2-17, N-{6-[6-(Tetrahydro-pyran-4-ylamino)-pyridin-3-yl]-benzothiazol-2-yl}-acetamide], for which the IC50 at PI3 K Alpha (ATP depletion assay, read-out: PI3 K Alpha IC50) is under 1000 nM.

Turning to `CC(=O)N1CCCC[C@@H]1C(=O)Nc1cn2cc(-c3cnc(N)c(C(F)(F)F)c3)ccc2n1` [Example 47, (R)-1-acetyl-N-(6-(6-amino-5-(trifluoromethyl)pyridin-3-yl)imidazo[1,2-a]pyridin-2-yl)piperidine-2-carboxamide], the IC50 at PI3 K Alpha (read-out: PI3K Alpha IC50) is under 10000 nM.

Regarding `Nc1ncc(-c2ccc3nc(NC(=O)C4CCCC(=O)N4)cn3c2)cc1C(F)(F)F` (stereo not drawn) [Example 266, N-(6-(6-amino-5-(trifluoromethyl)pyridin-3-yl)imidazo[1,2-a]pyridin-2-yl)-6-oxo-piperidine-2-carboxamide], on PI3 K Alpha (read-out: PI3K Alpha IC50), the half-inhibitory concentration (IC50) is under 1000 nM.

As for `CC(=O)Nc1cn2cc(-c3cnc(N)c(O[C@@H](C)C(F)(F)F)n3)cc(F)c2n1` [Example 259, (S)-N-(6-(5-amino-6-(1,1,1-trifluoropropan-2-yloxy)pyrazin-2-yl)-8-fluoroimidazo [1,2-a]pyridin-2-yl)acetamide], at PI3 K Alpha (read-out: PI3K Alpha IC50), the IC50 was under 1000 nM.
